Data: patent US7737182B2, “Pharmaceuticals for xerosis” (Taisho Pharmaceutical Co., Ltd., priority 2001, dated 2010)
One block for each compound: values may come before it.

Assays:
prostaglandin D receptor = target: T1, prostaglandin D receptor (Homo sapiens, UniProt Q13258); assay: Antagonism by BW A868C of the suppression of ADP-induced human platelet aggregation; assay type: cell-based; settings: human PRP, ADP 3 μmol/L
T1 construct: separate the supernatant (PRP, or platelet-rich plasma); endogenous in cells; host or cells: human platelets (platelet-rich plasma from healthy male donors)
T1 sequence (Q13258 1-359): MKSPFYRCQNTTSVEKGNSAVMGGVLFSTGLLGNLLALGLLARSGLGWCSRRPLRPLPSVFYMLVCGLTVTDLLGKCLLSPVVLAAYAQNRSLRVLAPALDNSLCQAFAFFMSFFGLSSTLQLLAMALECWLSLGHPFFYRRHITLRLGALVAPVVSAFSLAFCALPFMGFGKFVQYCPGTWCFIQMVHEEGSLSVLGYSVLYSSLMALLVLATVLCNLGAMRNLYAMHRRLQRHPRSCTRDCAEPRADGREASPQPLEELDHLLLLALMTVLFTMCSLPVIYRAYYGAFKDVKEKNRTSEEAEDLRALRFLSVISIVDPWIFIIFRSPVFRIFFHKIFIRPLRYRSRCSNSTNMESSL
Protocol: The prostaglandin D receptor selective antagonist used in the test was ((+/−)-3-benzyl-5-(6-carboxyhexyl)-1-(2-cyclohexyl-2-hydroxyethylamino)-hydantoin) (hereunder designated BW A868C) (Sigma-Aldrich Japan K.K.)
BW A868C was diluted with ethanol to final concentrations of 0.03 μmol/L, 0.1 μmol/L, 0.3 μmol/L, 1 μmol/L, 3 μmol/L and 10 μmol/L.
Compound No. 7 and PGD2 were diluted with ethanol to 287 nmol/L and 300 nmol/L, respectively, for subsequent use.
Blood was taken from the cubital veins of human healthy males and sampled into a tube containing 3.13% sodium citrate. The blood sample was centrifuged at 1,000 rpm for 10 minutes at 20° C. to separate the supernatant (PRP, or platelet-rich plasma) and the residue was further centrifuged at 3,000 rpm for 10 minutes at 20° C. to separate the supernatant (PPP, or platelet-poor plasma). The platelet count of PRP was appropriately diluted with PPP to 30×10^4 platelets/μL for subsequent use.
Platelet aggregation was measured with a platelet aggregation measuring instrument (PAM-8C; MC MEDICAL Co., LTD.) by the Born method (Nature, vol. 194, p. 927, 1962). A portion (273 μL) of PRP (for the BW A868C groups, 1 μL of BW A868C was added at varying concentrations) was preincubated at 37° C. for 3 minutes with stirring at 1,000 rpm. After the preincubation, 1 μL of ethanol or a test substance (compound No. 7: final concentration at 95.7 nmol/L; PGD2: final concentration at 1000 nmol/L) was added and the mixture was incubated at 37° C. for 3 minutes with stirring at 1000 rpm. After the incubation, 25 μL of ADP (final concentration at 3 μmol/L) was added to induce platelet aggregation and a maximum percent aggregation for 5 minutes was measured.

[1] = test system: NC mice induced to manifest dermatitis; assay: Dermatitis score in dermatitis manifesting NC mouse models (Test Example 2); assay type: in vivo; settings: 0.1% in 100% ethanol, 200 μl on dorsal back, seven times a week for 4 weeks
Protocol: By suitably modifying a method known to the skilled artisan (Jpn. J. Pharmacol. 76, 175-183 (1998) Jun Hiroi, et al. Effects of Tacrolimus Hydrate (FK-506) Ointment on Spontaneous Dermatitis in NC/Nga Mice), the following test was conducted in order to confirm the antipruritic effect of compounds of the invention.
Animals: Four-week old SPF NC mice (male) were purchased from Japan SLC; right after their arrival, the SPF NC mice were kept together with dermatitis manifesting male NC mice (older than 20 weeks) for 2 weeks under the following conditions so as to induce itch-evoked scratching behavior. […]
Drug administration: To the dorsal backs of the 20-wk NC mice that were induced to manifest dermatitis as the result of cohabitation with the spontaneous dermatitis manifesting NC mice, 100% ethanol, compound No. 7 (0.01%) dissolved in 100% ethanol or tacrolimus (0.1%) dissolved in 100% ethanol was applied from an Eppendorf pipette in 200-μl doses seven times a week for a period of 4 weeks. […] Dermatitis score: Dermatitic symptoms were observed and measured once a week. […]

[2] = test system: NC/Nga mice manifesting atopic dermatitis; assay: Spontaneous itch-evoked scratching behavior of NC mice (Test Example 1); assay type: in vivo; settings: for Inhibition rate (%) (percent itch suppression): 0.2 ml/mouse on dorsal skin, 24-hr scratching counts before vs after; for Efficacy (significance, paired t-test): scratching counts before vs after application
Protocol: About 20-week old NC/Nga mice each weighing about 30 g and manifesting atopic dermatitis were purchased from SLC and subjected to the following experiment. A magnet was buried in both hind paws of each mouse and by detecting its magnetism, the movement of the paws was measured with an itch measuring system (product of Neuroscience; when the mouse makes an action, the magnets move accordingly and a current flows through the coil; the moving magnets cause a change in the current, which is detected, measured and analyzed). Among the scratching actions, those lasting 1.5 seconds or longer were considered itch-evoked and their number was counted continuously. […] The subsequent 24-hr itch-evoked scratching behavior was measured and the number of itch-evoked scratchings after drug administration was compared with the initial count. The experimental data was processed to calculate the percent itch suppression on the basis of the total 24-hr itch-evoked scratching counts before and after drug application. For significance testing, the itch-evoked scratching counts that were obtained before and after drug application from individual animals in each group treated with a specific concentration of drug were processed by a paired t-test. Percent itch suppression (%)=(itch-evoked scratching count before drug application−itch-evoked scratching count after drug application)×100/itch-evoked scratching count before drug application (Results)

BALB/c male mice [3] = assay: Mouse skin's barrier function, treatment test, TEWL (Test Example 5); assay type: in vivo; settings: barrier destroyed with acetone/diethyl ether; 0.01% in ethanol, 100 μL, once a day for 2 days
Protocol: Six-week-old BALB/c male mice in groups of eight were shaven in a rostral dorsolateral area of 4 cm^2 (2 cm×2 cm) with electric clippers and the shaven area was covered for 60 seconds with an absorbent cotton (2 cm×2 cm) impregnated with a 1:1 liquid mixture of acetone and diethyl ether. This treatment for destroying the skin's barrier function was performed for 3 consecutive days on once-a-day basis. Starting on the day next to completion of the treatment for barrier destruction at day 3, a solvent (ethanol, 100 μL) or a drug dissolved in the solvent (compound No. 7, PGD2, PGF2α, or PGE1, all being at 0.01% in an amount of 100 μL) was applied to the barrier destroyed site for 2 days on once-a-day basis. On the day next to the second application of the solvent or drug, the transepidermal water loss (TEWL) at the same site was measured with Tewameter (TM210 of Courage & Khazawa, Germany) to evaluate the drug's action.

BALB/c male mice [4] = assay: Mouse skin's barrier function, preventive test, TEWL (Test Example 6); assay type: in vivo; settings: cohabitation with dermatitic NC/Nga mice; 0.01% in ethanol, 100 μL, once a day for 7 days
Protocol: Six-week-old BALB/c male mice in groups of six were shaven in a rostral dorsolateral area of 4 cm^2 (2 cm×2 cm) with electric clippers and kept in the same cage as NC/Nga mice that had developed dermatitis. From the day next to the start of cohabitation, a solvent (ethanol, 100 μL) or a drug dissolved in the solvent (compound No. 7, PGD2, PGF2α, or PGE1, all being at 0.01% in an amount of 100 μL) was applied to the shaven site for 7 days on once-a-day basis.
On the day next to the seventh application of the solvent or drug, the transepidermal water loss (TEWL) at the same site was measured with Tewameter (TM210 of Courage & Khazawa, Germany) to evaluate the drug's action, with the solvent-applied group being used as the control group.

[5] = concentration 0.00001% in 100% ethanol

concentration of BW A868C with significant antagonism of the platelet aggregation suppressing action of PGD2 (prostaglandin D receptor; PGD2 at 1000 nmol/L): ≥ 0.3 µmol/L
concentration of BW A868C with significant antagonism of the platelet aggregation suppressing action of compound No. 7 (prostaglandin D receptor; compound No. 7 at 95.7 nmol/L): ≥ 0.1 µmol/L
Structure (SMILES): O=C(O)CCCCCCC1C(=O)N(Cc2ccccc2)C(=O)N1NCC(O)C1CCCCC1 (racemic) [BW A868C, ((+/−)-3-benzyl-5-(6-carboxyhexyl)-1-(2-cyclohexyl-2-hydroxyethylamino)-hydantoin)]

Structure (SMILES): C=CC[C@@H]1/C=C(\C)C[C@H](C)C[C@H](OC)[C@H]2O[C@@](O)(C(=O)C(=O)N3CCCC[C@H]3C(=O)O[C@H](/C(C)=C/[C@@H]3CC[C@@H](O)[C@H](OC)C3)[C@H](C)[C@@H](O)CC1=O)[C@H](C)C[C@@H]2OC [tacrolimus, reference compound]
dermatitis score suppressing action compared to the vehicle group [1]: significant dermatitis score suppressing action

Structure (SMILES): O=C(O)CCCCSC[C@@H]1[C@@H](C#C[C@@H](O)C2CCCCC2)[C@H](O)C[C@H]1Cl [Compound No. 32]
Inhibition rate (%) (percent itch suppression) [2, 5]: 41.76%
Efficacy (significance, paired t-test) ([2]; concentration 0.00001%): ** (**: P < 0.01)

Structure (SMILES): O=C(O)C#CCCCC[C@@H]1[C@@H](C#C[C@@H](O)C2CCCCC2)[C@H](O)C[C@H]1Cl [Compound No. 15]
Inhibition rate (%) (percent itch suppression) ([2]; concentration 0.000001% in 100% ethanol): 34.61%
Efficacy (significance, paired t-test) ([2]; concentration 0.000001%): * (*: P < 0.05)

Structure (SMILES): CCCCC[C@H](O)/C=C/[C@H]1[C@H](O)CC(=O)[C@@H]1CCCCCCC(=O)O [PGE1]
transepidermal water loss (TEWL) compared to the solvent-applied control group (BALB/c male mice [3]): no significant difference from the control group
transepidermal water loss (TEWL) compared to the control group (BALB/c male mice [4]): significant decrease in TEWL

Structure (SMILES): O=C(O)CSCCSC[C@@H]1[C@@H](C#C[C@@H](O)C2CCCCC2)[C@H](O)C[C@H]1Cl [Compound No. 25]
Inhibition rate (%) (percent itch suppression) [2, 5]: 21.51%
Efficacy (significance, paired t-test) ([2]; concentration 0.00001%): * (*: P < 0.05)

Structure (SMILES): CCCCC[C@H](O)/C=C/[C@@H]1[C@@H](C/C=C\CCCC(=O)O)[C@@H](O)C[C@H]1O [PGF2α]
transepidermal water loss (TEWL) compared to the solvent-applied control group (BALB/c male mice [3]): no significant difference from the control group
transepidermal water loss (TEWL) compared to the control group (BALB/c male mice [4]): no significant difference from the control group

Structure (SMILES): COC(=O)CSCCCC[C@@H]1[C@@H](C#C[C@@H](O)C2CCCCC2)[C@H](O)C[C@H]1Cl [Compound No. 6]
Inhibition rate (%) (percent itch suppression) ([2]; concentration 0.0001% in 100% ethanol): 32.26%
Efficacy (significance, paired t-test) ([2]; concentration 0.0001%): * (*: P < 0.05)
